This note sets out measurements from US10765094B2, “Inflammation reporter system” (priority 2014, dated 2020).

Data set [1] has as its system mouse-derived macrophage-like cell line RAW264. As to the kind of experiment: Reporter activity in RAW264 cells transiently transfected with the reporter gene vector, luciferase luminescence measured with a luminometer. The settings on record: LPS 2 μg/mL. It is filed as cell-based. As to the method: The gene vector constructed as above was transiently introduced into mouse-derived macrophage-like cell line RAW264.
For transfection, Effectene (Qiagen) was used, and the cells at 24 hours after transfection were collected and provided for experiments. To a culture of transiently expressing cells, LPS (Sigma #L2654) was added at a concentration of 2 μg/mL, and the amount of luciferase luminescence at 48 hours after addition was determined by being measured with a luminometer. For use as a control, an LPS-free group was provided. In addition, as a conventional reporter system detecting only IL-1β gene expression, a vector was prepared to have GL4 ligated downstream of a promoter for the IL-1β gene, and cells transfected with this vector were provided for the same test.
For orientation: Reporter assays use an easily measured gene product as a stand-in for the process of interest.

In data set [2] the test system is inflammation reporter mouse. Kind of data set: Visualization of inflammatory reactions in the inflammation reporter transgenic mouse, bioimaging analyzer (IVIS). It is filed as in vivo. The settings on record: LPS 3 mg/kg wt intraperitoneally; 0, 4 and 24 hours after administration. As to the method: The excised and purified gene vector was injected into 200 fertilized eggs at the pronucleus stage which had been taken from mice of the C57BL/6 strain, thereby obtaining 71 pups. The genomic DNA extracted from the body tissue of each pup was used for genotype analysis to thereby obtain 18 founder mice having the gene vector inserted into their genome. Four founder mice were each crossed with a wild-type mouse of the C57BL/6 strain to produce F1 generation mice, which were then examined for reporter molecule reaction when intraperitoneally administered with LPS (Sigma #L2654).
The inflammation reporter mouse thus established was intraperitoneally administered with LPS (Sigma #L2654) at a concentration of 3 mg/kg wt.

On to lipopolysaccharide [LPS], for which the “reporter signals (amount of luciferase luminescence) upon LPS stimulation” value in data set [1] (48 hours after addition, vs LPS-free group, cells transfected with vector of the present invention or of conventional type) is reported as “significant increase in reporter signals”. Further, the “luciferase luminescence signals in the body” value in data set [2] is recorded as “luminescence signals from luciferase were able to be captured from all tissues of the body”.
For the substance “vector of the present invention: gene vector: IL-1β promoter/TK promoter, GL4 luciferase, IL-1β partial sequence (17-216 aa), CL1-PEST, SV40 polyA”, in data set [1] (48 hours, conventional vector = GL4 downstream of IL-1β gene promoter), the “improvement in sensitivity compared to the vector of conventional type” value is listed as at least 2 fold.
